The subject of experiment [1] is PRMT5-dependent Symmetric Di-methyl Arginine signal in HCT116 homozygous MTAP knockout cells. The experiment in a line: SYM11 In-Cell Western, HCT116 MTAP knockout. The following applies: Homo sapiens, HCT-116, 96 h, HCT116 homozygous MTAP knockout cells, 4 days of treatment, SYM11/DRAQ5 ratio; read-out: In-cell-Western (SYM11) HCT116 MTAP_KO IC50. It counts as cell-based.

The test system of a further experiment is HCT116 parental cells. The experiment in a line: Proliferation assay (CellTiter-Glo, 10 days of treatment), HCT116 parental. Type of experiment: cell-based. The following applies: Homo sapiens, HCT-116, 240 h. As for the experimental part: Control samples were analyzed in parallel.
Briefly, on Day 0, 250 HCT116 parental or HCT116 homozygous MTAP knockout cell were seeded in 96 well plates in McCoy's 5A supplemented with 10% fetal bovine serum and pen/strep and the cells were incubated overnight at 37° C. plus 5% CO2.
The following day, cells were treated with DMSO vehicle control or a dose response of PRMT5 inhibitors and incubated at 37 C plus 5% CO2 for five days. On Day 6, the cells were trypsinized and split 1:10 into new 96-well plates with fresh medium containing the same concentration of PRMT5 inhibitor and incubated for an additional 5 days at 37° C. plus 5% CO^2.
On Day 11, the viability of the cells was measured using a CTG assay kit (CellTiter-Glo; Promega cat.no G7573) in accordance with the manufacturer's instructions. The IC50 values for each compound after 10 days of treatment were calculated using GraphPad PRISM software.

Experiment [2] deals with HCT116 homozygous MTAP knockout cells. The experiment in a line: Proliferation assay (CellTiter-Glo, 10 days of treatment), HCT116 MTAP knockout. Type of experiment: cell-based. The following applies: Homo sapiens, HCT-116, 240 h, read-out: Proliferation HCT116MTAP_KO IC50. The method in brief: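 Cells (250/well) seeded in McCoy's 5A with 10% FBS, then treated the next day with a PRMT5 inhibitor dose response at 37 °C, 5% CO2. On day 6 they were split 1:10 into fresh medium with the same compound concentration. CellTiter-Glo viability was read on day 11 and IC50 taken after 10 days of treatment.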
Background: Cellular ATP, detected with luciferase, serves as a proxy for viable cell number.

Experiment [3] concerns PRMT5-dependent Symmetric Di-methyl Arginine signal in HCT116 parental cells. The experiment in a line: SYM11 In-Cell Western, HCT116 parental. It counts as cell-based. The following applies: Homo sapiens, HCT-116, 96 h, 4 days of treatment, SYM11/DRAQ5 ratio. The method in brief: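 HCT116 parental cells (2,000/well, McCoy's 5A with 10% FBS) dosed with PRMT5 inhibitors for four days at 37° C. Fixed in paraformaldehyde and methanol, then stained with SYM11 antibody and DRAQ5.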

The target in the next experiment is PRMT5/MEP50 complex (Homo sapiens (Human), UniProt O14744). The experiment in a line: PRMT5:MEP50 HotSpot Assay (full-length histone H2A substrate, plus and minus MTA). It counts as biochemical. As to conditions: IC50 + 2 μM MTA, in the presence of 2 μM MTA. In a few lines:
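Radiometric filter-binding format using recombinant full-length histone H2A as substrate. After the reaction was stopped, mixtures went onto filter paper and tritiated H2A was quantified by scintillation counting.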

Chain of PRMT5/MEP50 complex (O14744 2-637): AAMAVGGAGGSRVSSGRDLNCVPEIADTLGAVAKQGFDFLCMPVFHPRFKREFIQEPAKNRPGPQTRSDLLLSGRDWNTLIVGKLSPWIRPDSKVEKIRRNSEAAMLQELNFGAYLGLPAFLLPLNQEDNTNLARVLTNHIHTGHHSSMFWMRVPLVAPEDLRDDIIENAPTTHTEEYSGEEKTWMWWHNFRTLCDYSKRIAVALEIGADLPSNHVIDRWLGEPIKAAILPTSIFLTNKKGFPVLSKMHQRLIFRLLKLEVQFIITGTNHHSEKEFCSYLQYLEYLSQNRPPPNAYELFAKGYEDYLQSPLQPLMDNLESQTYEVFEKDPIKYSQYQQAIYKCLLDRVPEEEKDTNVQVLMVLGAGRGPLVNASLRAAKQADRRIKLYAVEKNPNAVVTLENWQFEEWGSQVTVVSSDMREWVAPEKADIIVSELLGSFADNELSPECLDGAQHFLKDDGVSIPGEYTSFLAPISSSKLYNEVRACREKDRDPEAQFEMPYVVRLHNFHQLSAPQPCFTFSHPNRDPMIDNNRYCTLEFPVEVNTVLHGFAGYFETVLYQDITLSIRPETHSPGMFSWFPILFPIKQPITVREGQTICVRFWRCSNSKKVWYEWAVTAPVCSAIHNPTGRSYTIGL
Chain of PRMT5/MEP50 complex (Q9BQA1 2-342 partner): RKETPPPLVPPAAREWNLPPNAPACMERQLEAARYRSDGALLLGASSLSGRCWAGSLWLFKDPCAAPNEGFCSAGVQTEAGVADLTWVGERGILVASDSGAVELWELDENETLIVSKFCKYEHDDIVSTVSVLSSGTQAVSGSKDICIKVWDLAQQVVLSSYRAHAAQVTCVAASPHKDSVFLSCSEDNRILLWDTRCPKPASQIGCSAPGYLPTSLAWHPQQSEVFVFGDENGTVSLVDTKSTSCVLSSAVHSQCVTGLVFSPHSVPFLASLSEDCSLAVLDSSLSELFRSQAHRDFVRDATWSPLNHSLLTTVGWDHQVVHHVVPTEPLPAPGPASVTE

With `Cn1ncc(-c2cc(F)c3c(=O)[nH]nc(CN)c3c2)c1-c1ccc2ccccc2c1C#N` [Example 10-2, 2-(4-(4-(aminomethyl)-8-fluoro-1-oxo-1,2-dihydrophthalazin-6-yl)-1-methyl-1H-pyrazol-5-yl)-1-naphthonitrile], the IC50 in experiment [1] was 6 nM; with HCT116 parental cells, 3380 nM; in experiment [2], 112 nM; in experiment [3], 2480 nM; on PRMT5/MEP50 complex, 67.2 nM.

As for `Cn1ncc(-c2ccc3c(=O)[nH]nc(CN)c3c2)c1-c1cc(Cl)c2ccccc2c1C#N` [Example 4-206, 2-(4-(4-(aminomethyl)-1-oxo-1,2-dihydrophthalazin-6-yl)-1-methyl-1H-pyrazol-5-yl)-4-chloro-1-naphthonitrile], the IC50 was 3 nM in experiment [1]; 1000 nM in the experiment with HCT116 parental cells; 34 nM in experiment [2]; above 1000 nM in experiment [3]; 35 nM on PRMT5/MEP50 complex.

As to `Cc1cc(C#N)c(-c2c(-c3ccc4c(=O)[nH]nc(CN)c4c3)cnn2C)cc1Cl` [Example 4-127, 2-(4-(4-(aminomethyl)-1-oxo-1,2-dihydrophthalazin-6-yl)-1-methyl-1H-pyrazol-5-yl)-4-chloro-5-methylbenzonitrile], the IC50 is 25 nM in experiment [1]; above 10000 nM in the experiment with HCT116 parental cells; 615 nM in experiment [2]; 5920 nM in experiment [3]; 2540 nM at PRMT5/MEP50 complex.

As to `Cc1cc(C)c(C#N)c(-c2c(-c3ccc4c(=O)[nH]nc(CN)c4c3)cnn2C)c1` [Example 12-11, 2-(4-(4-(aminomethyl)-1-oxo-1,2-dihydrophthalazin-6-yl)-1-methyl-1H-pyrazol-5-yl)-4,6-dimethylbenzonitrile], the IC50 in experiment [1] was 18 nM; in the experiment on HCT116 parental cells, 8700 nM; in experiment [2], 125 nM; in experiment [3], 1230 nM; on PRMT5/MEP50 complex, 234 nM.

`Cn1ncc(-c2ccc3c(=O)[nH]nc(CN)c3c2)c1-c1ccc2c(c1C#N)CCCO2` [Example 4-196, 6-(4-(4-(aminomethyl)-1-oxo-1,2-dihydrophthalazin-6-yl)-1-methyl-1H-pyrazol-5-yl)chromane-5-carbonitrile]: the IC50 in experiment [1] was found to be 11 nM; with HCT116 parental cells, 9290 nM; in experiment [2], 154 nM; in experiment [3], 1320 nM; on PRMT5/MEP50 complex, 653 nM.

Consider `Cn1ncc(-c2ccc3c(=O)[nH]nc(CN)c3c2)c1-c1cnn(Cc2ccccc2)c1Cl` [Example 4-187, 4-(aminomethyl)-6-(1′-benzyl-5′-chloro-2-methyl-1′H,2H-[3,4′-bipyrazol]-4-yl)phthalazin-1(2H)-one], for which the IC50 in experiment [1] is 7 nM; with HCT116 parental cells, 1360 nM; in experiment [2], 1900 nM; in experiment [3] it was 1000 nM; on PRMT5/MEP50 complex, 239 nM.

Regarding `Cn1ncc(-c2ccc3c(=O)[nH]nc(CN)c3c2)c1-c1cc(Cl)cc(Cl)c1` [Example 4-141, 4-(aminomethyl)-6-(5-(3,5-dichlorophenyl)-1-methyl-1H-pyrazol-4-yl)phthalazin-1(2H)-one], the IC50 in experiment [1] came to 88 nM; with HCT116 parental cells, 5500 nM; in experiment [2] it was 2090 nM; in experiment [3], 4960 nM; at PRMT5/MEP50 complex, 794 nM.

`Cc1cc(Cl)c(C#N)c(-c2c(-c3ccc4c(=O)[nH]nc(CN)c4c3)cnn2C)c1` [Example 4-150, 2-(4-(4-(aminomethyl)-1-oxo-1,2-dihydrophthalazin-6-yl)-1-methyl-1H-pyrazol-5-yl)-6-chloro-4-methylbenzonitrile]: the IC50 in experiment [1] was 18 nM; with HCT116 parental cells it was above 10000 nM; in experiment [2] it was 661 nM; in experiment [3], 8390 nM; at PRMT5/MEP50 complex it was 673 nM.

The values above are taken from US11479551B2, “MTA-cooperative PRMT5 inhibitors” (Mirati Therapeutics, Inc., priority 2019, dated 2022).
